Reference: patent publication US20070128217A1 (priority 2003, published 2007)

How the values were obtained:
[1] = test system: control sera (pooled serum of ten healthy LUMC hospital workers; commercial negative donor pooled serum from the Dutch bloodbank); type: binding, human; design: Binding of Control serum LUMC to linear peptides / Binding of Control serum Blood-bank to linear peptides / Binding of Control serum LUMC to looped peptides / Binding of Control Serum Blood-Bank to Looped peptides / Binding of Control serum LUMC to linear peptides of the protein M of SARS-CoV Urbani / Binding of Control serum Blood-bank to linear peptides of the protein M of SARS-CoV Urbani / Binding of Control serum LUMC to looped peptides of the protein M of SARS-CoV Urbani / Binding of Control Serum Blood-Bank to Looped peptides of the protein M of SARS-CoV Urbani: unit not given here
[2] = test system: rabbit serum obtained by immunizing a rabbit with the SARS-CoV strain Frankfurt 1; type: binding; design: Binding of a rabbit serum to linear peptides / Binding of a rabbit serum to looped peptides / Rabbit serum linear peptides / Rabbit serum looped peptides / Binding of a rabbit serum to linear peptides of protein N of SARS-CoV Urbani (Rabbit serum linear peptides) / Binding of a rabbit serum to looped/cyclic peptides of protein N of SARS-CoV Urbani (Rabbit serum looped peptides): unit not given here
[3] = test system: antibodies in sera from SARS patients (sera 1a, 1b, 2, 6, 37, 62, London, SARS-yellow, SARS-green); type: binding, human; design: Binding of serum 6 to linear peptides of protein X1 of SARS-CoV Urbani / Binding of serum 37 to linear peptides of protein X1 of SARS-CoV Urbani / Binding of serum 6 to looped/cyclic peptide (PEPSCAN-ELISA) / Binding of serum 37 to looped/cyclic peptide (PEPSCAN-ELISA) / Binding of serum 37 to looped/cyclic peptides of protein X1 of SARS-CoV Urbani / Binding of serum 6 to linear peptides of protein X2 / Binding of serum 37 to linear peptides of protein X2 / Binding of serum 37 to looped/cyclic peptides of protein X2 of SARS-CoV Urbani / Binding of serum 6 to linear peptides of protein M of SARS-CoV Urbani / Binding of serum 37 to linear peptides of protein M of SARS-CoV Urbani / Binding of serum 6 to looped/cyclic peptides of protein M of SARS-CoV Urbani / Binding of serum 37 to looped/cyclic peptides of protein M of SARS-CoV Urbani / Binding of serum 6 to linear peptides of protein X3 of SARS-CoV Urbani / Binding of serum 37 to linear peptides of protein X3 of SARS-CoV Urbani / Binding of serum 37 to looped/cyclic peptides of protein X3 of SARS-CoV Urbani / Binding of serum 6 to linear peptides of protein X4 of SARS-CoV Urbani / Binding of serum 37 to linear peptides of protein X4 of SARS-CoV Urbani / Binding of serum 37 to looped/cyclic peptides of protein X4 of SARS-CoV Urbani / Binding of serum 6 to linear peptides of protein X5 of SARS-CoV Urbani / Binding of serum 37 to linear peptides of protein X5 of SARS-CoV Urbani / Binding of serum 37 to looped/cyclic peptides of protein X5 of SARS-CoV Urbani / Binding of serum 6 to linear peptides of protein N of SARS-CoV Urbani / Binding of serum 37 to linear peptides of protein N of SARS-CoV Urbani / Binding of serum 6 to linear peptide (PEPSCAN-ELISA) / Binding of serum 1a to looped/cyclic peptides of protein N of SARS-CoV Urbani / Binding of serum 1b to looped/cyclic peptides of protein N of SARS-CoV Urbani / Binding of serum 2 to looped/cyclic peptides of protein N of SARS-CoV Urbani / Binding of serum 6 to looped/cyclic peptides of protein N of SARS-CoV Urbani / Binding of serum 37 to looped/cyclic peptides of protein N of SARS-CoV Urbani / Binding of serum 62 to looped/cyclic peptides of protein N of SARS-CoV Urbani / Binding of serum London to looped/cyclic peptides of protein N of SARS-CoV Urbani / Binding of serum SARS-green to looped/cyclic peptides of protein N of SARS-CoV Urbani: unit not given here

## FRIAIWNLDVIISSI
[1]
  Binding of Control Serum Blood-Bank to Looped peptides of the protein X3 of SARS-CoV Urbani: 0.8
  Binding of Control serum Blood-bank to linear peptides of the protein X3 of SARS-CoV Urbani: 0.7
  Binding of Control serum LUMC to linear peptides of the protein X3 of SARS-CoV Urbani: 0.6
  Binding of Control serum LUMC to looped peptides of the protein X3 of SARS-CoV Urbani: 0.7
[2]
  Rabbit serum linear peptides: 0.3
  Rabbit serum looped peptides: 0.2
[3]
  Binding of serum 1a to linear peptides of protein X3 of SARS-CoV Urbani: 0.8
  Binding of serum 1a to looped/cyclic peptides of protein X3 of SARS-CoV Urbani: 0.7
  Binding of serum 1b to linear peptides of protein X3 of SARS-CoV Urbani: 0.5
  Binding of serum 1b to looped/cyclic peptides of protein X3 of SARS-CoV Urbani: 0.5
  Binding of serum 2 to linear peptides of protein X3 of SARS-CoV Urbani: 0.6
  Binding of serum 2 to looped/cyclic peptides of protein X3 of SARS-CoV Urbani: 0.7
  Binding of serum 6 to linear peptides of protein X3 of SARS-CoV Urbani: 0.4
  Binding of serum 6 to looped/cyclic peptides of protein X3 of SARS-CoV Urbani: 0.3
  Binding of serum 37 to linear peptides of protein X3 of SARS-CoV Urbani: 0.5
  Binding of serum 37 to looped/cyclic peptides of protein X3 of SARS-CoV Urbani: 0.6
  Binding of serum 62 to linear peptides of protein X3 of SARS-CoV Urbani: 0.7
  Binding of serum 62 to looped/cyclic peptides of protein X3 of SARS-CoV Urbani: 0.6
  Binding of serum London to linear peptides of protein X3 of SARS-CoV Urbani: 0.7
  Binding of serum London to looped/cyclic peptides of protein X3 of SARS-CoV Urbani: 0.2
  Binding of serum SARS-green to linear peptides of protein X3 of SARS-CoV Urbani: 0.4
  Binding of serum SARS-green to looped/cyclic peptides of protein X3 of SARS-CoV Urbani: 0.2
  Binding of serum SARS-yellow to linear peptides of protein X3 of SARS-CoV Urbani: 0.7
  Binding of serum SARS-yellow to looped/cyclic peptides of protein X3 of SARS-CoV Urbani: 0.8

## ALYKGFQFICNLLLL
[1]
  Binding of Control Serum Blood-Bank to Looped peptides: 0.5
  Binding of Control serum Blood-bank to linear peptides: 0.6
  Binding of Control serum LUMC to linear peptides: 0.5
  Binding of Control serum LUMC to looped peptides: 0.5
[2]
  Binding of a rabbit serum to linear peptides: 0.6
  Binding of a rabbit serum to looped peptides: 0.4
[3]
  Binding of serum 1a to linear peptides of protein X1 of SARS-CoV Urbani: 0.6
  Binding of serum 1a to looped/cyclic peptide (PEPSCAN-ELISA): 0.4
  Binding of serum 1b to linear peptides of protein X1 of SARS-CoV Urbani: 0.5
  Binding of serum 1b to looped/cyclic peptide (PEPSCAN-ELISA): 0.3
  Binding of serum 2 to linear peptides of protein X1 of SARS-CoV Urbani: 0.4
  Binding of serum 2 to looped/cyclic peptide (PEPSCAN-ELISA): 0.3
  Binding of serum 6 to linear peptides of protein X1 of SARS-CoV Urbani: 0.4
  Binding of serum 6 to looped/cyclic peptide (PEPSCAN-ELISA): 1.3
  Binding of serum 37 to linear peptides of protein X1 of SARS-CoV Urbani: 0.5
  Binding of serum 37 to looped/cyclic peptide (PEPSCAN-ELISA): 0.4
  Binding of serum 62 to linear peptides of protein X1 of SARS-CoV Urbani: 0.5
  Binding of serum 62 to looped/cyclic peptide (PEPSCAN-ELISA): 0.4
  Binding of serum London to linear peptides of protein X1 of SARS-CoV Urbani: 0.2
  Binding of serum London to looped/cyclic peptide (PEPSCAN-ELISA): 1.4
  Binding of serum SARS-green to linear peptides of protein X1 of SARS-CoV Urbani: 0.2
  Binding of serum SARS-green to looped/cyclic peptide (PEPSCAN-ELISA): 0.2
  Binding of serum SARS-yellow to linear peptides of protein X1 of SARS-CoV Urbani: 0.5
  Binding of serum SARS-yellow to looped/cyclic peptide (PEPSCAN-ELISA): 0.4

## SELVIGAVIIRGHLR
[1]
  Binding of Control Serum Blood-Bank to Looped peptides of the protein M of SARS-CoV Urbani: 0.6
  Binding of Control serum Blood-bank to linear peptides of the protein M of SARS-CoV Urbani: 0.8
  Binding of Control serum LUMC to linear peptides of the protein M of SARS-CoV Urbani: 0.9
  Binding of Control serum LUMC to looped peptides of the protein M of SARS-CoV Urbani: 0.6
[2]
  Rabbit serum linear peptides: 0.2
  Rabbit serum looped peptides: 0.2
[3]
  Binding of serum 1a to linear peptides of protein M of SARS-CoV Urbani: 0.7
  Binding of serum 1a to looped/cyclic peptides of protein M of SARS-CoV Urbani: 0.8
  Binding of serum 1b to linear peptides of protein M of SARS-CoV Urbani: 0.6
  Binding of serum 1b to looped/cyclic peptides of protein M of SARS-CoV Urbani: 0.7
  Binding of serum 2 to linear peptides of protein M of SARS-CoV Urbani: 0.6
  Binding of serum 2 to looped/cyclic peptides of protein M of SARS-CoV Urbani: 0.8
  Binding of serum 6 to linear peptides of protein M of SARS-CoV Urbani: 0.7
  Binding of serum 6 to looped/cyclic peptides of protein M of SARS-CoV Urbani: 0.6
  Binding of serum 37 to linear peptides of protein M of SARS-CoV Urbani: 0.5
  Binding of serum 37 to looped/cyclic peptides of protein M of SARS-CoV Urbani: 0.8
  Binding of serum 62 to linear peptides of protein M of SARS-CoV Urbani: 0.4
  Binding of serum 62 to looped/cyclic peptides of protein M of SARS-CoV Urbani: 0.8
  Binding of serum London to linear peptides of protein M of SARS-CoV Urbani: 0.4
  Binding of serum London to looped/cyclic peptides of protein M of SARS-CoV Urbani: 0.2
  Binding of serum SARS-green to linear peptides of protein M of SARS-CoV Urbani: 0.5
  Binding of serum SARS-green to looped/cyclic peptides of protein M of SARS-CoV Urbani: 0.3
  Binding of serum SARS-yellow to linear peptides of protein M of SARS-CoV Urbani: 0.3
  Binding of serum SARS-yellow to looped/cyclic peptides of protein M of SARS-CoV Urbani: 0.9

## LACLCKHKKVSTNLC
[1]
  Binding of Control Serum Blood-Bank to Looped peptides: 0.3
  Binding of Control serum Blood-bank to linear peptides: 0.8
  Binding of Control serum LUMC to linear peptides: 0.7
  Binding of Control serum LUMC to looped peptides: 0.4
[2]
  Binding of a rabbit serum to linear peptides: 0.3
  Binding of a rabbit serum to looped peptides: 0.3
[3]
  Binding of serum 1a to looped/cyclic peptides of protein X2 of SARS-CoV Urbani: 0.3
  Binding of serum 1b to looped/cyclic peptides of protein X2 of SARS-CoV Urbani: 0.3
  Binding of serum 2 to looped/cyclic peptides of protein X2 of SARS-CoV Urbani: 0.2
  Binding of serum 6 to looped/cyclic peptides of protein X2 of SARS-CoV Urbani: 0.2
  Binding of serum 37 to looped/cyclic peptides of protein X2 of SARS-CoV Urbani: 0.3
  Binding of serum 62 to looped/cyclic peptides of protein X2 of SARS-CoV Urbani: 0.4
  Binding of serum London to looped/cyclic peptides of protein X2 of SARS-CoV Urbani: 0.2
  Binding of serum SARS-green to looped/cyclic peptides of protein X2 of SARS-CoV Urbani: 0.2
  Binding of serum SARS-yellow to looped/cyclic peptides of protein X2 of SARS-CoV Urbani: 0.3
  Recognition of the peptide by sera of SARS-CoV infected individuals, and form (linear, looped/cyclic) in which it is recognized: recognized in linear form

## TIAEILIIIMRTFRI
[1]
  Binding of Control Serum Blood-Bank to Looped peptides of the protein X3 of SARS-CoV Urbani: 1.1
  Binding of Control serum Blood-bank to linear peptides of the protein X3 of SARS-CoV Urbani: 0.8
  Binding of Control serum LUMC to linear peptides of the protein X3 of SARS-CoV Urbani: 0.6
  Binding of Control serum LUMC to looped peptides of the protein X3 of SARS-CoV Urbani: 0.7
[2]
  Rabbit serum linear peptides: 0.2
  Rabbit serum looped peptides: 0.0
[3]
  Binding of serum 1a to linear peptides of protein X3 of SARS-CoV Urbani: 0.8
  Binding of serum 1a to looped/cyclic peptides of protein X3 of SARS-CoV Urbani: 0.7
  Binding of serum 1b to linear peptides of protein X3 of SARS-CoV Urbani: 0.3
  Binding of serum 1b to looped/cyclic peptides of protein X3 of SARS-CoV Urbani: 0.4
  Binding of serum 2 to linear peptides of protein X3 of SARS-CoV Urbani: 0.7
  Binding of serum 2 to looped/cyclic peptides of protein X3 of SARS-CoV Urbani: 0.6
  Binding of serum 6 to linear peptides of protein X3 of SARS-CoV Urbani: 0.7
  Binding of serum 6 to looped/cyclic peptides of protein X3 of SARS-CoV Urbani: 0.4
  Binding of serum 37 to linear peptides of protein X3 of SARS-CoV Urbani: 0.6
  Binding of serum 37 to looped/cyclic peptides of protein X3 of SARS-CoV Urbani: 0.3
  Binding of serum 62 to linear peptides of protein X3 of SARS-CoV Urbani: 0.7
  Binding of serum 62 to looped/cyclic peptides of protein X3 of SARS-CoV Urbani: 0.4
  Binding of serum London to linear peptides of protein X3 of SARS-CoV Urbani: 0.7
  Binding of serum London to looped/cyclic peptides of protein X3 of SARS-CoV Urbani: 0.2
  Binding of serum SARS-green to linear peptides of protein X3 of SARS-CoV Urbani: 0.3
  Binding of serum SARS-green to looped/cyclic peptides of protein X3 of SARS-CoV Urbani: 0.4
  Binding of serum SARS-yellow to linear peptides of protein X3 of SARS-CoV Urbani: 0.3
  Binding of serum SARS-yellow to looped/cyclic peptides of protein X3 of SARS-CoV Urbani: 0.5
